Measured values: PMC8623398, “Investigation of the Mechanisms of Cytotoxic Activity of 1,3-Disubstituted Thiourea Derivatives” (Pharmaceuticals, 2021)

Legend:
Type in all cases: cell-based, human
IL-6 level, HaCaT cells = experiment: IL-6 level ELISA, HaCaT; details: 72 h, compound at IC50 concentration
Experimental: Because of the low secretion of IL-6 by leukemic cells compared to solid tumors, and in addition to the lack of IL-6 receptors in K-562 cells, studies of the effect of derivatives 1–3, 8, and 9 on the inhibition of IL-6 release were carried out on primary and secondary solid tumor cells (SW480, SW620, and PC3). A remarkable inhibition of the IL-6 level was denoted for both colon cancer cell lines. Compound 2, identified as the strongest inhibitor, reduced the interleukin level by 54% (in SW480 cells) and 63% (SW620 cells). A significant effect was also observed in these cells for its structural isomer 3 (39% and 23% of inhibition, respectively). Additionally, compound 3 considerably affected the IL-6 level produced by PC3 cells, and reduced it by 33%. Similarly, the treatment with derivative 1 was effective for both colon cancer cells. In its presence, IL-6 release decreased by 28–36%, as compared to controls. For monosubstituted derivatives 8 and 9, the observed IL-6-reducing influence was weaker. They both inhibited IL-6 secretion in SW480 and SW620 cell lines by 25–32%. In contrast to compound 9, thiourea 8 additionally diminished the cytokine level in PC3 cells by 26%.
The IL-6 concentration in all studied cancer cells and normal HaCaT cell lines was measured by an ELISA kit (Diaclon SAS Besancon CEDEX, Besançon, France). […] IL-6 in cell culture supernatant was measured using the enzyme-linked immunosorbent assay in accordance with the manufacturer’s protocol.

SW620 cells [1] = experiment: MTT assay, SW620; details: Homo sapiens, SW-620, 72 h, 50% growth inhibition
Experimental: (§1) As a first step in assessing their cytotoxic properties, all thioureas of the series were assayed against four human carcinoma cell lines, such as SW480 (primary colon cancer), SW620 (metastatic colon cancer), PC3 (metastatic prostate cancer), and K-562 (chronic myelogenous leukemia), as well as against the normal cell line HaCaT (immortalized human keratinocytes). Table 1 lists the compound concentrations that produced 50% of growth inhibition (IC50, μM), generated by the MTT method, in comparison with two commonly used chemotherapeutic agents, doxorubicin and cisplatin.
(§2) The human primary (SW480), metastatic (SW620) colon cancer, metastatic prostate cancer (PC3), chronic myelogenous leukemia (K-562), and human immortal keratinocyte (HaCaT) cell lines were purchased from the American Type Culture Collection (ATCC, Rockville, MD, USA). The cells were cultured in medium according to protocols (MEM for SW480 and SW620, RPMI 1640 for PC3 and K-562, and DMEM for HaCaT cells), supplemented with 10% FBS, penicillin (100 U/mL) and streptomycin (100 μg/mL), and cultured in a 37 °C/5% CO2 humidified incubator. The cells were cultured until appropriate confluence was achieved (80–90%). Next, they were harvested by treatment with 0.25% trypsin (Gibco Life Technologies, Waltham, MA, USA) excluding the non-adherent K-562 cell line and used for studies.
(§3) Cells without the studied compounds in medium were used as a control.
(§4) The cell viability was assessed by determination of MTT salt [3-(4,5-dimethylthiazol-2-yl)-2,5-diphenyltetrazoliumbromide] conversion by mitochondrial dehydrogenase. The MTT assay was performed as previously described. Alternatively, non-adherent leukemic cells were centrifuged in a microplate centrifuge (400× g, 5 min) during the collection stages. Experiments were repeated three times. Cell viability was presented as a percent of MTT reduction in the treated cells versus the control cells. The number of viable cells cultured without the studied compounds was assumed as 100%. A decreased relative MTT level indicated decreased cell viability. Thiourea compounds with the highest cytotoxic potential assessed by MTT determination (with the lowest IC50) were chosen for subsequent assessments of cytotoxicity mechanisms.

K-562 cells = experiment: MTT assay, K562; details: 50% growth inhibition
Experimental: as §1, §2, §3, §4

SW620 cells [2] = experiment: Trypan blue assay, SW620; details: SW620, 72 h; for Cell Number × 10^5 / Viability (%): compound at IC50 concentration; for reduction in live cell number: vs control
Experimental: (§5) In order to estimate the tumor and normal cell population density and their viability after treatment with compounds 1–3, 8, and 9, the trypan blue dye exclusion assay was performed. The live cell number of all cancerous cells incubated for 72 h with the studied thioureas was considerably lower in comparison with the controls (Table 2; Figure S1A). The highest reduction in cell amount was denoted for both colon SW480 and SW620 cells treated with the dichlorophenyl derivative 2, and it accounted for 93%. […] Similarly, a noticeable decline in both colon cancer cell populations was observed after treatment with the ortho-substituted compound 8. The number of live cells equaled 12% and 18%, respectively, as compared to controls. This thiourea also led to a reduction of PC3 cells of 38%, and leukemia K-562 cell lines of 27%. The number of SW620 and PC3 cells decreased by 72% and 63% in the presence of para-substituted compound 9. However, the reducing influence of this thiourea on the number of other cancerous cells was at the level of 21–32%. […] A significant effect on the other studied pathological cells was also noticed and accounted for 32–46%. Furthermore, the derivative 3 reduced the amount of live cancer cells by 32–59%, of which its decreasing impact on colon cancer cells was the greatest.
(§6) The live cell count was assessed by the trypan blue exclusion dye assay using an automated cell counter (CountessTM Invitrogen, Waltham, MA, USA). Untreated cells were used as the control.

PC3 cells = experiment: Trypan blue assay, PC3; details: PC3, 72 h; for Cell Number × 10^5 / Viability (%): compound at IC50 concentration; for reduction in live cell number: IC50 concentration, vs control
Experimental: as §5, §6

[3] = Annexin V-FITC/PI flow cytometry, HaCaT; design: viability at 72 h: concentration or dose not given beside the values; details: human, HaCaT cells (normal keratinocytes), representative dot plot, Figure 4E, read-out: LL quadrant, viable cells
Experimental: (§7) To estimate the mechanism of anticancer activity of the selected compounds 1–3, 8, and 9, their effect on both early and late apoptosis was evaluated by flow cytometry analysis. […] Additionally, visible late apoptosis-inducing properties in these cell lines were denoted for the compound 9 (47% ± 3.0%), which was twice as strong towards the colon tumor cells mentioned above. The apoptotic properties of analogs 3 and 8 in K-562 cells varied from 30% ± 1.6% to 33% ± 2.3%. […] Whereas the apoptosis-generating influence of derivatives 2 and 3 on normal keratinocytes was higher (29% and 23%), their selectivity measured by MTT methods is favorable. The obtained results are in agreement with the IC50 values assigned to pathological cancer cell lines. The cells were cultured and harvested under the conditions described in Section 3.2.1. […] The effect of these compounds on the process of early and late apoptosis and necrosis was determined as described previously by dual staining with Annexin V:FITC and propidium iodide, according to the manufacturer’s protocol (Becton Dickinson). The cells that were Annexin V:FITC positive and PI negative were identified as early apoptotic, and Annexin V:FITC and PI positive as late apoptotic or necrotic.

SW620 cells [4] = experiment: Annexin V-FITC/PI flow cytometry, SW620; details: SW620, 72 h, IC50 concentration
Experimental: as §7

IC50 (SW620 cells [1]) [µM] | IC50 (K-562 cells; Homo sapiens, K562, 72 h) [µM] | IC50 (K-562 cells; 72 h) [µM] | Structure (SMILES) | IL-6 Concentration (IL-6 level, HaCaT cells) [pg/mL] | Cell Number × 10^5 (SW620 cells [2]) | Viability (%) (SW620 cells [2]) | Cell Number × 10^5 (PC3 cells) | Viability (%) (PC3 cells) | viability at 72 h [3] [%] | cells in late apoptosis (SW620 cells [4]) | reduction in live cell number (SW620 cells [2]; IC50 concentration) [%] | reduction in live cell number (PC3 cells) [%] | decrease of cell viability (SW620 cells [2]; IC50 concentration) [%] | number of live cells as compared to controls (SW620 cells [2]; IC50 concentration) [%]
9.4 ± 1.85 | 6.8 ± 1.57 |  | Fc1ccc(NC(=S)Nc2cccc(C(F)(F)F)c2)cc1Cl [Compound 1, 1-(3-chloro-4-fluorophenyl)-3-[3-(trifluoromethyl)phenyl]thiourea] | 8.7 ± 0.03 | 1.3 ± 0.25 × 10^5 | 79 ± 1.30 | 2.3 ± 0.15 × 10^5 | 93 ± 1.50 | 78.2 | 57% ± 1.2% |  |  |  | 
6.7 ± 1.74 | 10.2 to 12.9 | 10.2 ± 0.35 | FC(F)(F)c1cccc(NC(=S)Nc2ccc(Cl)cc2)c1 [Compound 9, 1-(4-chlorophenyl)-3-[3-(trifluoromethyl)phenyl]thiourea] | 9.0 ± 0.01 | 1.6 ± 0.11 × 10^5 | 84 ± 3.08 | 1.2 ± 0.15 × 10^5 | 73 ± 1.99 | 79.5 | ≤ 26% | 72 | 63 |  | 
7.6 ± 1.75 | 54.8 ± 0.24 |  | FC(F)(F)c1ccc(NC(=S)Nc2cccc(C(F)(F)F)c2)cc1 [Compound 8, 1-[3-(trifluoromethyl)phenyl]-3-[4-(trifluoromethyl)phenyl]thiourea] | 9.1 ± 0.06 | 1.0 ± 0.20 × 10^5 | 55 ± 1.11 | 2.1 ± 0.12 × 10^5 | 82 ± 1.10 | 70.1 | ≤ 26% |  | 38 | 45 | 18
5.8 ± 0.76 | 54.3 ± 1.86 |  | FC(F)(F)c1cccc(NC(S)=Nc2ccc(Cl)cc2Cl)c1 [Compound 3, 1-(2,4-dichlorophenyl)-3-[3-(trifluoromethyl)phenyl]thiourea] | 8.9 ± 0.01 | 2.4 ± 0.20 × 10^5 | 93 ± 2.33 | 1.8 ± 0.18 × 10^5 | 58 ± 1.20 | 65.7 | ≤ 26% |  |  |  | 
1.5 ± 0.72 | 6.3 ± 1.28 |  | FC(F)(F)c1cccc(NC(=S)Nc2ccc(Cl)c(Cl)c2)c1 [Compound 2, 1-(3,4-dichlorophenyl)-3-[3-(trifluoromethyl)phenyl]thiourea] | 9.1 ± 0.03 | 0.4 ± 0.22 × 10^5 | 42 ± 1.30 | 2.4 ± 0.16 × 10^5 | 93 ± 1.40 | 57.6 | 99% ± 0.5% | 93 | 69 |  | 
